Measurements reported in publication PMC11871328 (Communications Biology, 2025).

Legend:
[1] = tested on: MCF-7 breast cancer cells; assay: MTT cell viability assay, MCF-7; assay type: cell-based, human; settings: in words
[2] = in words; from earlier studies; cited from earlier work
[3] = tested on: BAG-1:HSP70 interaction; settings: in words; from earlier studies; cited from earlier work

| Structure (SMILES) | Effect on viability of MCF-7 cells [1] | Solubility in water [2] | Inhibition of BAG-1:HSP70 interaction [3] |
| --- | --- | --- | --- |
| N=C(N)NCCC[C@H](NC(=O)CN)C(=O)N[C@@H](CCCCN)C(=O)N[C@@H](CCCCN)C(=O)N[C@@H](CCCNC(=N)N)C(=O)N[C@@H](CCCNC(=N)N)C(=O)N[C@@H](CCC(N)=O)C(=O)N[C@@H](CCCNC(=N)N)C(=O)N[C@@H](CCCNC(=N)N)C(=O)N[C@@H](CCCNC(=N)N)C(=O)N1CCC[C@H]1C(=O)N[C@@H](CCC(N)=O)C(N)=O [TAT only] | did not affect the viability of the cells | – | – |
| CCNc1ccc(-c2nc3ccc(C)cc3s2)cc1 [Thio-2, N-Ethyl-4-(6-methyl-1,3-benzothiazol-2-yl)aniline] | – | poor solubility in water | moderate inhibition |
